Test results from patent US8802597B2, “Herbicidal pyrimidines” (E I du Pont de Nemours and Company, priority 2003, dated 2014).
Where two headings read alike, the source gives them in different places.

Columns and labels:
Type in all cases: in vivo
[1] = test system: Surinam grass (Brachiaria decumbens); assay: Test B pre/postemergence; conditions: Urochloa decumbens; for pest or weed control at 125 g/ha: 125 g ai/ha; for pest or weed control at 500 g/ha: 500 g ai/ha
In short: (§1)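 Test chemicals in a non-phytotoxic solvent mixture with surfactant were applied preemergence to planted seeds and postemergence to plants 2 to 18 cm tall (1- to 4-leaf stage). After 13 to 15 days in a greenhouse, injury was visually rated against untreated controls on a 0 to 100 scale.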

[2] = test system: wheat (Triticum aestivum); assay: Test B pre/postemergence; conditions: Triticum aestivum; for plant injury at 125 g/ha: 125 g ai/ha; for plant injury at 500 g/ha: 500 g ai/ha
In short: as §1

[3] = test system: velvetleaf (Abutilon theophrasti); assay: Test B pre/postemergence; conditions: Abutilon theophrasti; for pest or weed control at 125 g/ha: 125 g ai/ha; for pest or weed control at 500 g/ha: 500 g ai/ha
In short: as §1

[4] = test system: cocklebur (Xanthium strumarium); assay: Test B pre/postemergence; conditions: Xanthium strumarium; for pest or weed control at 125 g/ha: 125 g ai/ha; for pest or weed control at 500 g/ha: 500 g ai/ha
In short: as §1

[5] = test system: crabgrass (Digitaria sanguinalis); assay: Test B pre/postemergence; conditions: Digitaria sanguinalis; for pest or weed control at 125 g/ha: 125 g ai/ha; for pest or weed control at 500 g/ha: 500 g ai/ha
In short: as §1

[6] = test system: morningglory (Ipomoea coccinea); assay: Test B pre/postemergence; conditions: Ipomoea; for pest or weed control at 125 g/ha: 125 g ai/ha; for pest or weed control at 500 g/ha: 500 g ai/ha
In short: as §1

[7] = test system: pigweed (Amaranthus retroflexus); assay: Test B pre/postemergence; conditions: Amaranthus retroflexus; for pest or weed control at 125 g/ha: 125 g ai/ha; for pest or weed control at 500 g/ha: 500 g ai/ha
In short: as §1

[8] = test system: barnyardgrass (Echinochloa crus-galli); assay: Test B pre/postemergence; conditions: Echinochloa crus-galli; for pest or weed control at 125 g/ha: 125 g ai/ha; for pest or weed control at 500 g/ha: 500 g ai/ha
In short: as §1

[9] = test system: giant foxtail (Setaria faberii); assay: Test B pre/postemergence; conditions: Setaria faberi; for pest or weed control at 125 g/ha: 125 g ai/ha; for pest or weed control at 500 g/ha: 500 g ai/ha
In short: as §1

corn (Zea mays) = assay: Test B pre/postemergence; conditions: Zea mays
In short: as §1

[10] = test system: lambsquarters (Chenopodium album); assay: Test B pre/postemergence; conditions: Chenopodium album; for pest or weed control at 125 g/ha: 125 g ai/ha; for pest or weed control at 500 g/ha: 500 g ai/ha
In short: as §1

[11] = test system: blackgrass (Alopecurus myosuroides); assay: Test B postemergence; conditions: Alopecurus myosuroides, post-emergence
In short: as §1

wild oat (Avena fatua) = assay: Test B postemergence; conditions: Avena fatua, post-emergence
In short: as §1

[12] = test system: umbrella sedge (Cyperus difformis); assay: Test B flooded paddy test; conditions: Cyperus difformis, Flood, 1000 g ai/ha; scale 0 to 100; read-out: Plant response rating, Sedge, Umbrella
In short: (§2)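 Rice, umbrella sedge, duck salad and barnyardgrass grown to 2-leaf stage under flooded paddy conditions and treated with formulated test chemicals. Kept in greenhouse 13–15 days, then visually rated against untreated controls on a 0–100 scale (0 no effect, 100 complete control).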

[13] = test system: duck salad (Heteranthera limosa); assay: Test B flooded paddy test; conditions: Heteranthera limosa, Flood, 1000 g ai/ha; scale 0 to 100; read-out: Plant response rating, Ducksalad
In short: as §2

[14] = test system: barnyardgrass (Echinochloa crus-galli); assay: Test B flooded paddy test; conditions: Echinochloa crus-galli, Flood, 1000 g ai/ha; scale 0 (no effect) to 100 (complete control); read-out: Plant response rating, Barnyardgrass
In short: as §2

rice (Oryza sativa) = assay: Test B flooded paddy test; conditions: Oryza sativa, Flood, 1000 g ai/ha; scale 0 to 100; read-out: Plant response rating, Rice
In short: as §2

[15] = pre-emergence, Preemergence, scale 0 to 100 (0 no effect, 100 complete control), read-out: Plant response rating, Wheat

`CCOC(=O)c1nc(C2CC2)nc(NN)c1Br` [Compound 42] was tested, and the pest or weed control at 125 g/ha ([1]; post-emergence, Postemergence, scale 0 to 100 (0 no effect, 100 complete control), read-out: Surinam Grass plant response rating) was 0%, the pest or weed control at 500 g/ha ([1]; post-emergence, Postemergence, scale 0 to 100, read-out: Plant response rating, Surinam Grass) was 10% and the pest or weed control at 125 g/ha ([1]; pre-emergence, Preemergence, scale 0 to 100 (0 no effect, 100 complete control), read-out: Plant response rating, Surinam Grass) was 0%. The pest or weed control at 500 g/ha ([1]; pre-emergence, Preemergence, scale 0 to 100 (0 no effect, 100 complete control), read-out: Surinam Grass plant response rating) was 20%, the plant injury at 125 g/ha ([2]; post-emergence, Postemergence, scale 0 to 100 (0 no effect, 100 complete control), read-out: Wheat plant response rating) was 50% and the plant injury at 500 g/ha ([2]; post-emergence, Postemergence, scale 0 to 100, read-out: Plant response rating, Wheat) was 50%. The plant injury at 125 g/ha [2, 15] was 10%, the plant injury at 500 g/ha [2, 15] was 10% and the pest or weed control at 125 g/ha ([3]; post-emergence, Postemergence, scale 0 to 100 (0 no effect, 100 complete control), read-out: Velvetleaf plant response rating) was 50%. The pest or weed control at 500 g/ha ([3]; post-emergence, Postemergence, scale 0 to 100, read-out: Plant response rating, Velvetleaf) was 80%, the pest or weed control at 125 g/ha ([3]; pre-emergence, Preemergence, scale 0 to 100 (0 no effect, 100 complete control), read-out: Plant response rating, Velvetleaf) was 10% and the pest or weed control at 500 g/ha ([3]; pre-emergence, Preemergence, scale 0 to 100 (0 no effect, 100 complete control), read-out: Velvetleaf plant response rating) was 70%. It also gave a pest or weed control at 125 g/ha ([4]; post-emergence, Postemergence, scale 0 to 100 (0 no effect, 100 complete control), read-out: Cocklebur plant response rating) of 80%, a pest or weed control at 500 g/ha ([4]; post-emergence, Postemergence, scale 0 to 100, read-out: Plant response rating, Cocklebur) of 90% and a pest or weed control at 125 g/ha ([4]; pre-emergence, Preemergence, scale 0 to 100 (0 no effect, 100 complete control), read-out: Plant response rating, Cocklebur) of 40%. It also gave a pest or weed control at 500 g/ha ([4]; pre-emergence, Preemergence, scale 0 to 100 (0 no effect, 100 complete control), read-out: Cocklebur plant response rating) of 70%, a pest or weed control at 125 g/ha ([5]; post-emergence, Postemergence, scale 0 to 100 (0 no effect, 100 complete control), read-out: Crabgrass plant response rating) of 0% and a pest or weed control at 500 g/ha ([5]; post-emergence, Postemergence, scale 0 to 100, read-out: Plant response rating, Crabgrass) of 30%. It also gave a pest or weed control at 125 g/ha ([5]; pre-emergence, Preemergence, scale 0 to 100 (0 no effect, 100 complete control), read-out: Plant response rating, Crabgrass) of 0%, a pest or weed control at 500 g/ha ([5]; pre-emergence, Preemergence, scale 0 to 100 (0 no effect, 100 complete control), read-out: Crabgrass plant response rating) of 20% and a pest or weed control at 125 g/ha ([6]; post-emergence, Postemergence, scale 0 to 100 (0 no effect, 100 complete control), read-out: Morningglory plant response rating) of 80%. The pest or weed control at 500 g/ha ([6]; post-emergence, Postemergence, scale 0 to 100, read-out: Plant response rating, Morningglory) was 90%, the pest or weed control at 125 g/ha ([6]; pre-emergence, Preemergence, scale 0 to 100 (0 no effect, 100 complete control), read-out: Plant response rating, Morningglory) was 20% and the pest or weed control at 500 g/ha ([6]; pre-emergence, Preemergence, scale 0 to 100 (0 no effect, 100 complete control), read-out: Morningglory plant response rating) was 80%. The pest or weed control at 125 g/ha ([7]; post-emergence, Postemergence, scale 0 to 100 (0 no effect, 100 complete control), read-out: Pigweed plant response rating) was 80%, the pest or weed control at 500 g/ha ([7]; post-emergence, Postemergence, scale 0 to 100, read-out: Plant response rating, Pigweed) was 90% and the pest or weed control at 125 g/ha ([7]; pre-emergence, Preemergence, scale 0 to 100 (0 no effect, 100 complete control), read-out: Plant response rating, Pigweed) was 50%. The pest or weed control at 500 g/ha ([7]; pre-emergence, Preemergence, scale 0 to 100 (0 no effect, 100 complete control), read-out: Pigweed plant response rating) was 90%, the pest or weed control at 125 g/ha ([8]; post-emergence, Postemergence, scale 0 to 100 (0 no effect, 100 complete control), read-out: Barnyardgrass plant response rating) was 10% and the pest or weed control at 500 g/ha ([8]; post-emergence, Postemergence, scale 0 to 100, read-out: Plant response rating, Barnyardgrass) was 30%. For the same molecule, the pest or weed control at 125 g/ha ([8]; pre-emergence, Preemergence, scale 0 to 100 (0 no effect, 100 complete control), read-out: Plant response rating, Barnyardgrass) was 0%, the pest or weed control at 500 g/ha ([8]; pre-emergence, Preemergence, scale 0 to 100 (0 no effect, 100 complete control), read-out: Barnyardgrass plant response rating) was 0% and the pest or weed control at 125 g/ha ([9]; post-emergence, Postemergence, scale 0 to 100 (0 no effect, 100 complete control), read-out: Foxtail, Giant plant response rating) was 0%. For the same molecule, the pest or weed control at 500 g/ha ([9]; post-emergence, Postemergence, scale 0 to 100, read-out: Plant response rating, Foxtail, Giant) was 0%, the pest or weed control at 125 g/ha ([9]; pre-emergence, Preemergence, scale 0 to 100 (0 no effect, 100 complete control), read-out: Plant response rating, Foxtail, Giant) was 0% and the pest or weed control at 500 g/ha ([9]; pre-emergence, Preemergence, scale 0 to 100 (0 no effect, 100 complete control), read-out: Foxtail, Giant plant response rating) was 0%. For the same molecule, the plant injury at 125 g/ha (corn (Zea mays); post-emergence, Postemergence, 125 g ai/ha, scale 0 to 100 (0 no effect, 100 complete control), read-out: Corn plant response rating) was 0%, the Corn plant response rating (crop injury, 0 = no effect, 100 = complete kill) at 500 g/ha (corn (Zea mays); post-emergence, Postemergence, 500 g ai/ha, scale 0 to 100) was 0% and the Corn plant response rating (crop injury, 0 = no effect, 100 = complete kill) at 125 g/ha (corn (Zea mays); pre-emergence, Preemergence, 125 g ai/ha, scale 0 to 100 (0 no effect, 100 complete control)) was 0%. The plant injury at 500 g/ha (corn (Zea mays); pre-emergence, Preemergence, 500 g ai/ha, scale 0 to 100 (0 no effect, 100 complete control), read-out: Corn plant response rating) was 0%, the pest or weed control at 125 g/ha ([10]; post-emergence, Postemergence, scale 0 to 100 (0 no effect, 100 complete control), read-out: Lambsquarters plant response rating) was 80% and the pest or weed control at 500 g/ha ([10]; post-emergence, Postemergence, scale 0 to 100, read-out: Plant response rating, Lambsquarters) was 90%. The pest or weed control at 125 g/ha ([10]; pre-emergence, Preemergence, scale 0 to 100 (0 no effect, 100 complete control), read-out: Plant response rating, Lambsquarters) was 40%, the pest or weed control at 500 g/ha ([10]; pre-emergence, Preemergence, scale 0 to 100 (0 no effect, 100 complete control), read-out: Lambsquarters plant response rating) was 90% and the pest or weed control at 125 g/ha ([11]; 125 g ai/ha, scale 0 to 100 (0 no effect, 100 complete control), read-out: Blackgrass plant response rating) was 30%. The pest or weed control at 500 g/ha ([11]; 500 g ai/ha, scale 0 to 100, read-out: Plant response rating, Blackgrass) was 60%, the pest or weed control at 125 g/ha (wild oat (Avena fatua); 125 g ai/ha, scale 0 to 100 (0 no effect, 100 complete control), read-out: Oat, Wild plant response rating) was 0% and the pest or weed control at 500 g/ha (wild oat (Avena fatua); 500 g ai/ha, scale 0 to 100, read-out: Plant response rating, Oat, Wild) was 0%. It also gave a pest or weed control at 1000 g/ha [12] of 0%, a pest or weed control at 1000 g/ha [13] of 0% and a pest or weed control at 1000 g/ha [14] of 0%. The plant injury at 1000 g/ha (rice (Oryza sativa)) was 0%.
